This is an account of results in ChEMBL document CHEMBL1148564, “Synthesis and interactions of 7-deoxy-, 10-deacetoxy, and 10-deacetoxy-7-deoxypaclitaxel with NCI/ADR-RES cancer cells and bovine brain microvessel endothelial cells” (Bioorg Med Chem Lett, 2006).

Experiment [1] has as its target T1, Tubulin (Homo sapiens) (UniProt P68371+Q9H4B7+P0DPH7+P68366+Q13509+Q71U36+P04350+Q3ZCM7+P07437+P68363+Q9BQE3+Q6PEY2+Q13885+Q9BVA1+Q9BUF5). As to the kind of experiment: Effect on tubulin polymerization by tubulin assembly assay relative to paclitaxel. The experiment is classed as protein-complex assay.
Experiment [2] concerns MCF7. Kind of experiment: Antiproliferative activity against MCF7 breast cancer cell line relative to paclitaxel. The experiment is classed as functional, Homo sapiens.
Experiment [3] addresses T1, Tubulin (Homo sapiens). Kind of experiment: Antiproliferative activity against NCI/ADR-RES […] cancer cell line relative to paclitaxel. The experiment is classed as functional, cell-based.

Consider `CC(=O)O[C@@]12CO[C@@H]1CC[C@@]1(C)C(=O)CC3=C(C)[C@@H](OC(=O)[C@H](O)[C@@H](NC(=O)c4ccccc4)c4ccccc4)C[C@@](O)([C@@H](OC(=O)c4ccccc4)[C@H]21)C3(C)C`, for which the results for the Ratio ED50 in experiment [1], in experiment [2] and in experiment [3] were 2, 9 and 0.21, respectively.
For `CC(=O)O[C@@]12CO[C@@H]1C[C@H](O)[C@@]1(C)C(=O)CC3=C(C)[C@@H](OC(=O)[C@H](O)[C@@H](NC(=O)c4ccccc4)c4ccccc4)C[C@@](O)([C@@H](OC(=O)c4ccccc4)[C@H]21)C3(C)C` the same measures were 2.2, 0.87 and 0.79.
Consider `CC(=O)O[C@H]1C(=O)[C@]2(C)CC[C@H]3OC[C@@]3(OC(C)=O)[C@H]2[C@H](OC(=O)c2ccccc2)[C@]2(O)C[C@H](OC(=O)[C@H](O)[C@@H](NC(=O)c3ccccc3)c3ccccc3)C(C)=C1C2(C)C`, for which the Ratio ED50 turned out to be 1.4 in experiment [1], 30 in experiment [2] and 1 in experiment [3].
